Data: US20030129753A1, “Chemical screening method” (priority 2002, published 2003)
≈ marks a conversion by molar mass, not a printed value.

Experiment: solubility in ethanol by conventional methods
Format: physicochemical
Conditions: organic solvent or mixture, separate experiments by conventional methods
Method: The invention was tested on the sulfisoxazole/polyvinylpyrrolidone system in ethanol where sulfisoxazole was the active ingredient and polyvinylpyrrolidone was the carrier of choice. The total time required to evaporate ethanol for each sample was less than 30 seconds. […] This information is important because these solubility parameters determine the minimum amount (volume) of solvent required to co-dissolve the active ingredient and the carrier molecules. Next eight ethanol solutions were prepared of different sulfisoxazole to polyvinylpyrrolidone weight (molar) ratios.

Question: For `Cc1noc(NS(=O)(=O)c2ccc(N)cc2)c1C` [sulfisoxazole], which solubility is on record?
Answer: 16 mg/mL (≈ 59.9 mM)
